The source of these data is patent publication US10213427B2 (Incyte Corporation, priority 2010, dated 2019).

One may read the pIC50 as the negative decadic logarithm of the IC50, by convention in mol/L. Lower therefore signals a high IC50.

Each structure is given as a SMILES string. pIC50: −log10 of the molar value.

Sequence of FGFR3 enzyme (Millipore) (P22607 23-806): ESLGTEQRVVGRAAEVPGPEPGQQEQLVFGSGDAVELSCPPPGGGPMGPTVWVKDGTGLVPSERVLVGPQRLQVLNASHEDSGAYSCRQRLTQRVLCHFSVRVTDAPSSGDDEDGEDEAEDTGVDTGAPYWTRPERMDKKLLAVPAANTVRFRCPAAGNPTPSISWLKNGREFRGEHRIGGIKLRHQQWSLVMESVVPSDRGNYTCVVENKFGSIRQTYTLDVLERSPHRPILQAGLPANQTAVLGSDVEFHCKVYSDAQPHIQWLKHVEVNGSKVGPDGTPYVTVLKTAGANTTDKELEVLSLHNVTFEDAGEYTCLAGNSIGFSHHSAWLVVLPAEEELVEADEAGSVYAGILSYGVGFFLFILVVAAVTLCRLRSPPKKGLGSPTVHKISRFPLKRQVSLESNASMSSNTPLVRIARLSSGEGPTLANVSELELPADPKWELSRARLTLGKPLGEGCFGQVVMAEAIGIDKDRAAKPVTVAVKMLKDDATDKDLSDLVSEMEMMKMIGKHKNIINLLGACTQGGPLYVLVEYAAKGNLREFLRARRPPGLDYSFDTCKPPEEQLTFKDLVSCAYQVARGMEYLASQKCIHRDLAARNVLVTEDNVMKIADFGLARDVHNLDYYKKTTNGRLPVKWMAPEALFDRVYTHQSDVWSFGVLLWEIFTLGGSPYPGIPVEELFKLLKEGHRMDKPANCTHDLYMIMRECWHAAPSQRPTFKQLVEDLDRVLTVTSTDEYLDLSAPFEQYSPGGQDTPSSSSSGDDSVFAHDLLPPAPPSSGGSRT

The assay addresses FGFR3 enzyme (Millipore) (Homo sapiens (Human), UniProt P22607). The experiment in a line: FGFR3 Enzymatic Assay. It is filed as biochemical. The following applies: FRET peptide phosphorylation, 140 μM ATP. The protocol:
The inhibitor potency of compounds of the invention was measured in an enzyme assay that measures peptide phosphorylation using FRET measurements to detect product formation. Inhibitors were serially diluted in DMSO and a volume of 0.5 μL was transferred to the wells of a 384-well plate. A 10 μL volume of FGFR3 enzyme (Millipore) diluted in assay buffer (50 mM HEPES, 10 mM MgCl2, 1 mM EGTA, 0.01% Tween-20, 5 mM DTT, pH 7.5) was added to the plate and pre-incubated for 5-10 minutes. Appropriate controls (enzyme blank and enzyme with no inhibitor) were included on the plate. […] The plate was incubated at 25° C. for 1 hr. […] The plate was allowed to equilibrate for ˜1 hr before scanning the wells on a PheraStar plate reader.
GraphPad prism3 was used to analyze the data. The IC50 values were derived by fitting the data to the equation for a sigmoidal dose-response with a variable slope. Y=Bottom+(Top−Bottom)/(1+10^((Log IC50−X)*HillSlope)) where X is the logarithm of concentration and Y is the response.
`O=C(NCC(F)(F)F)Nc1cccc(-c2cnc3cc(-c4cnn(C5CCN(C(=O)CC6CCCO6)CC5)c4)cnn23)c1` (centres unmarked) [Example 50, N-[3-(7-{1-[1-(tetrahydrofuran-2-ylacetyl)piperidin-4-yl]-1H-pyrazol-4-yl}imidazo[1,2-b]pyridazin-3-yl)phenyl]-N′-(2,2,2-trifluoroethyl)urea]: the pIC50 is over 8.00.

For `N#CCC(n1cc(-c2cnn3c(-c4cccc(NC(=O)NCC(F)(F)F)c4)cnc3c2)cn1)C(F)(F)F` (centres unmarked) [Example 90, N-[3-(7-{1-[1-(Cyanomethyl)-2,2,2-trifluoroethyl]-1H-pyrazol-4-yl}imidazo[1,2-b]pyridazin-3-yl)phenyl]-N′-(2,2,2-trifluoroethyl)urea], the pIC50 was over 8.00.

As to `COC1CCN(C(=O)C(C)n2cc(-c3cnn4c(-c5cccc(NC(=O)NCC(F)(F)F)c5)cnc4c3)cn2)C1` (centres unmarked) [Example 68, N-[3-(7-{1-[2-(3-Methoxypyrrolidin-1-yl)-1-methyl-2-oxoethyl]-1H-pyrazol-4-yl}imidazo[1,2-b]pyridazin-3-yl)phenyl]-N′-(2,2,2-trifluoroethyl)urea], the pIC50 was over 8.00.

With `O=C(NCC(F)(F)F)Nc1cccc(-c2cnc3cc(-c4cnn(C5CCN(C(=O)C6(O)CC6)CC5)c4)cnn23)c1` [Example 43, N-{3-[7-(1-{1-[(1-hydroxycyclopropyl)carbonyl]piperidin-4-yl}-1H-pyrazol-4-yl)imidazo[1,2-b]pyridazin-3-yl]phenyl}-N′-(2,2,2-trifluoroethyl)urea], the pIC50 is over 8.00.

In the case of `O=C(NCC(F)(F)F)Nc1cccc(-c2cnc3cc(-c4cnn(C5CCN(C(=O)C6CC(O)C6)CC5)c4)cnn23)c1` (centres unmarked) [Example 47, N-{3-[7-(1-{1-[(3-hydroxycyclobutyl)carbonyl]piperidin-4-yl}-1H-pyrazol-4-yl)imidazo[1,2-b]pyridazin-3-yl]phenyl}-N′-(2,2,2-trifluoroethyl)urea], the pIC50 is over 8.00.

`CC(C(=O)N(C)C)n1cc(-c2cnn3c(-c4cccc(NC(=O)NCC(F)(F)F)c4)cnc3c2)cn1` (centres unmarked) [Example 56, N,N-Dimethyl-2-(4-{3-[3-({[(2,2,2-trifluoroethyl)amino]carbonyl}amino)phenyl]imidazo[1,2-b]pyridazin-7-yl}-1H-pyrazol-1-yl)propanamide] had a negative logarithm of the IC50 (pIC50) of over 8.00.

On to `N#CCC(c1ccco1)n1cc(-c2cnn3c(-c4cccc(NC(=O)NCC(F)(F)F)c4)cnc3c2)cn1` (centres unmarked) [Example 91, N-[3-(7-{1-[2-Cyano-1-(2-furyl)ethyl]-1H-pyrazol-4-yl}imidazo[1,2-b]pyridazin-3-yl)phenyl]-N′-(2,2,2-trifluoroethyl)urea], for which the negative-log IC50 (pIC50) is over 8.00.

Molecule `N#CCC(C1CC1)n1cc(-c2cnn3c(-c4cccc(NC(=O)NCC(F)(F)F)c4)cnc3c2)cn1` (centres unmarked) [Example 92, N-(3-{7-[1-(2-Cyano-1-cyclopropylethyl)-1H-pyrazol-4-yl]imidazo[1,2-b]pyridazin-3-yl}phenyl)-N′-(2,2,2-trifluoroethyl)urea] showed a pIC50 of over 8.00.

With `COC1CCN(C(=O)C(C)n2cc(-c3cnn4c(-c5cccc(NC(=O)NCC(F)(F)F)c5)cnc4c3)cn2)CC1` (centres unmarked) [Example 69, N-[3-(7-{1-[2-(4-Methoxypiperidin-1-yl)-1-methyl-2-oxoethyl]-1H-pyrazol-4-yl}imidazo[1,2-b]pyridazin-3-yl)phenyl]-N′-(2,2,2-trifluoroethyl)urea], the pIC50 was over 8.00.

`CC(C(=O)N(C)C1CCOCC1)n1cc(-c2cnn3c(-c4cccc(NC(=O)NCC(F)(F)F)c4)cnc3c2)cn1` (centres unmarked) [Example 59, N-Methyl-N-(tetrahydro-2H-pyran-4-yl)-2-(4-{3-[3-({[(2,2,2-trifluoroethyl)amino]carbonyl}amino)phenyl]imidazo[1,2-b]pyridazin-7-yl}-1H-pyrazol-1-yl)propanamide] had a pIC50 of over 8.00.

The molecule `CNC(=O)C(C)c1ccc(-c2cnn3c(-c4cccc(NC(=O)NCC(F)(F)F)c4)cnc3c2)cc1` (centres unmarked) [Example 98, N-Methyl-2-(4-{3-[3-({[(2,2,2-trifluoroethyl)amino]carbonyl}amino)phenyl]imidazo[1,2-b]pyridazin-7-yl}phenyl)propanamide] had a pIC50 of over 8.00.

Molecule `O=C(NCC(F)(F)F)Nc1cccc(-c2cnc3cc(-c4ccc(N5CCN(C(=O)N6CCCC6)CC5)nc4)cnn23)c1` [Example 53, N-[3-(7-{6-[4-(pyrrolidin-1-ylcarbonyl)piperazin-1-yl]pyridin-3-yl}imidazo[1,2-b]pyridazin-3-yl)phenyl]-N′-(2,2,2-trifluoroethyl)urea] gave a negative-log IC50 (pIC50) of over 8.00.

As to `N#CCC(c1ccccc1)n1cc(-c2cnn3c(-c4cccc(NC(=O)NCC(F)(F)F)c4)cnc3c2)cn1` (centres unmarked) [Example 93, N-(3-{7-[1-(2-Cyano-1-phenylethyl)-1H-pyrazol-4-yl]imidazo[1,2-b]pyridazin-3-yl}phenyl)-N′-(2,2,2-trifluoroethyl)urea], the pIC50 was over 8.00.

For `COCC(=O)N1CC(CC#N)(n2cc(-c3cnn4c(-c5cccc(NC(=O)NCC(F)(F)F)c5)cnc4c3)cn2)C1` [Example 75, N-[3-(7-{1-[3-(Cyanomethyl)-1-(methoxyacetyl)azetidin-3-yl]-1H-pyrazol-4-yl}imidazo[1,2-b]pyridazin-3-yl)phenyl]-N′-(2,2,2-trifluoroethyl)urea], the pIC50 is over 8.00.

`O=C(NCC(F)(F)F)Nc1cccc(-n2cnc3cc(-c4cnn(C5CCN(C(=O)CC6CC6)CC5)c4)ccc32)c1` [Example 27, N-[3-(5-{1-[1-(Cyclopropylacetyl)piperidin-4-yl]-1H-pyrazol-4-yl}-1H-benzimidazol-1-yl)phenyl]-N′-(2,2,2-trifluoroethyl)urea] had a negative logarithm of the IC50 (pIC50) of over 8.00.

In the case of `CC(C(=O)N1CCC(C#N)C1)n1cc(-c2cnn3c(-c4cccc(NC(=O)NCC(F)(F)F)c4)cnc3c2)cn1` (centres unmarked) [Example 67, N-[3-(7-{1-[2-(3-Cyanopyrrolidin-1-yl)-1-methyl-2-oxoethyl]-1H-pyrazol-4-yl}imidazo[1,2-b]pyridazin-3-yl)phenyl]-N′-(2,2,2-trifluoroethyl)urea], the pIC50 was over 8.00.

With `CC(C(=O)NCc1nccn1C)c1ccc(-c2ccc3c(c2)ncn3-c2cccc(NC(=O)NCC(F)(F)F)c2)cc1` (centres unmarked) [Example 20, N-[(1-Methyl-1H-imidazol-2-yl)methyl]-2-(4-{1-[3-({[(2,2,2-trifluoroethyl)amino]carbonyl}amino)phenyl]-1H-benzimidazol-5-yl}phenyl)propanamide], the pIC50 was over 8.00.

With `CC(C(=O)N1CCC(C#N)C1)c1ccc(-c2ccc3c(c2)ncn3-c2cccc(NC(=O)NCC(F)(F)F)c2)cc1` (centres unmarked) [Example 19, N-[3-(5-{4-[2-(3-Cyanopyrrolidin-1-yl)-1-methyl-2-oxoethyl]phenyl}-1H-benzimidazol-1-yl)phenyl]-N′-(2,2,2-trifluoroethyl)urea], the pIC50 is over 8.00.

In turn, `CC1(C(=O)N2CCC(n3cc(-c4cnn5c(-c6cccc(NC(=O)NCC(F)(F)F)c6)cnc5c4)cn3)CC2)CC1` [Example 42, N-{3-[7-(1-{1-[(1-Methylcyclopropyl)carbonyl]piperidin-4-yl}-1H-pyrazol-4-yl)imidazo[1,2-b]pyridazin-3-yl]phenyl}-N′-(2,2,2-trifluoroethyl)urea] had a pIC50 of over 8.00.

With `N#CCC(=O)N1CCC(n2cc(-c3cnn4c(-c5cccc(NC(=O)NCC(F)(F)F)c5)cnc4c3)cn2)CC1` [Example 44, N-[3-(7-{1-[1-(Cyanoacetyl)piperidin-4-yl]-1H-pyrazol-4-yl}imidazo[1,2-b]pyridazin-3-yl)phenyl]-N′-(2,2,2-trifluoroethyl)urea], the pIC50 is over 8.00.

Take `CNC(=O)Nc1cccc(-c2cnc3cc(-c4cccc(C(=O)NCc5ccccc5F)c4)cnn23)c1` [Example 96, N-(2-Fluorobenzyl)-3-[3-(3-{[(methylamino)carbonyl]amino}phenyl)imidazo[1,2-b]pyridazin-7-yl]benzamide]: the pIC50 is under 7.60.

As for `CC(C(=O)NCC1CC1)c1ccc(-c2ccc3c(c2)ncn3-c2cccc(NC(=O)NCC(F)(F)F)c2)cc1` (centres unmarked) [Example 16, N-(Cyclopropylmethyl)-2-(4-{{1-[3-(([(2,2,2-trifluoroethyl)amino]carbonyl)}amino)phenyl]-1H-benzimidazol-5-yl}phenyl)propanamide], the pIC50 was over 8.00.

Turning to `N#CCC(=O)N1CCC(n2cc(-c3ccc4c(c3)ncn4-c3cccc(NC(=O)NCC(F)(F)F)c3)cn2)CC1` [Example 28, N-[3-(5-{1-[1-(Cyanoacetyl)piperidin-4-yl]-1H-pyrazol-4-yl}-1H-benzimidazol-1-yl)phenyl]-N′-(2,2,2-trifluoroethyl)urea], the pIC50 was over 8.00.

Take `CN(C)CC(=O)N1CCC(n2cc(-c3cnn4c(-c5cccc(NC(=O)NCC(F)(F)F)c5)cnc4c3)cn2)CC1` [Example 33, N-{3-[7-(1-{1-[(Dimethylamino)acetyl]piperidin-4-yl}-1H-pyrazol-4-yl)imidazo[1,2-b]pyridazin-3-yl]phenyl}-N′-(2,2,2-trifluoroethyl)urea]: the pIC50 is over 8.00.

Take `CC(C(=O)NCCN1CCOCC1)c1ccc(-c2cnn3c(-c4cccc(NC(=O)NCC(F)(F)F)c4)cnc3c2)cc1` (centres unmarked) [Example 107, N-(2-Morpholin-4-ylethyl)-2-(4-{3-[3-({[(2,2,2-trifluoroethyl)amino]carbonyl}amino)phenyl]imidazo[1,2-b]pyridazin-7-yl}phenyl)propanamide]: the pIC50 is over 8.00.

Take `CC(C(=O)N(C)C)c1ccc(-c2cnn3c(-c4cccc(NC(=O)NCC(F)(F)F)c4)cnc3c2)cc1` (centres unmarked) [Example 99, N,N-Dimethyl-2-(4-{3-[3-({[(2,2,2-trifluoroethyl)amino]carbonyl}amino)phenyl]imidazo[1,2-b]pyridazin-7-yl}phenyl)propanamide]: the pIC50 is over 8.00.
